# Tests used:
# Type in all cases: cell-based, mouse
# [1] = test system: β-galactosidase in CMV-LacZ C2C12 myotubes; assay: CMV-LacZ secondary screen in C2C12 myotubes (β-Gal stabilizing assay); conditions: for CMV-LACZ in Myotubes, signal relative to DMSO: C2C12 CMV-LacZ myotubes, fold relative to DMSO; for CMV-LACZ in Myotubes, value relative to DMSO: SU9516 analogs, C2C12 CMV-LacZ, N=2
# Outline: (§1)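 β-Gal level was the read-out, measured in a clonal C2C12 line expressing LacZ from a CMV promoter. Dose-response curves used six concentrations, 0.5 μM up to 40 μM, with duplicate points.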
# [2] = test system: α7 integrin (LacZ reporter in α7+/LacZ myotubes); assay: Myotube α7 integrin FDG assay (Burkin assay in myotubes, 96-well); conditions: for Burkin Assay in Myotubes, value relative to DMSO: SU9516 analogs, 96-well, N=3-6
# [3] = test system: α7 integrin (LacZ reporter in α7βgal+/− myoblasts); assay: Myoblast α7+/LacZ integrin FDG assay (Burkin assay in myoblasts, 96-well); conditions: 96-well; for Burkin Assay in Myoblasts, signal relative to DMSO: α7+/LacZ myoblasts; for Burkin Assay in Myoblasts, value relative to DMSO: SU9516 analogs, N=3-6
# [4] = test system: β-galactosidase in CMV-LacZ C2C12 myoblasts; assay: CMV-LacZ secondary screen in C2C12 myoblasts (β-Gal stabilizing assay); conditions: for CMV-LACZ in Myoblasts (β-galactosidase activity relative to DMSO): CMV-LacZ C2C12 myoblasts; for CMV-LACZ in Myoblasts, value relative to DMSO: SU9516 analogs, C2C12 CMV-LacZ, N=2
# Outline: as §1
compound,measurement,setting,value
O=C(NCCc1ccccc1)C1CCC(=O)N1C1CCCC1 (centres unmarked) [MLS001200665-01],"CMV-LACZ in Myotubes, signal relative to DMSO",[1]; 0.5 uM,1.1543
same,"CMV-LACZ in Myotubes, signal relative to DMSO",[1]; 1 uM,0.9695
same,"CMV-LACZ in Myotubes, signal relative to DMSO",[1]; 5 uM,1.1274
same,"CMV-LACZ in Myotubes, signal relative to DMSO",[1]; 10 uM,0.9662
same,"CMV-LACZ in Myotubes, signal relative to DMSO",[1]; 20 uM,1.1800
same,"CMV-LACZ in Myotubes, signal relative to DMSO",[1]; 40 uM,1.2706
same,"Burkin Assay in Myotubes, α7 integrin LacZ reporter signal relative to DMSO",[2]; 0.5 uM,1.031
same,"Burkin Assay in Myotubes, α7 integrin LacZ reporter signal relative to DMSO",[2]; 1 uM,0.8461
same,"Burkin Assay in Myotubes, α7 integrin LacZ reporter signal relative to DMSO",[2]; 5 uM,1.091
same,"Burkin Assay in Myotubes, α7 integrin LacZ reporter signal relative to DMSO",[2]; 10 uM,1.126
same,"Burkin Assay in Myotubes, α7 integrin LacZ reporter signal relative to DMSO",[2]; 20 uM,0.8365
same,"Burkin Assay in Myotubes, α7 integrin LacZ reporter signal relative to DMSO",[2]; 40 uM,0.8877
same,"Burkin Assay in Myoblasts, signal relative to DMSO",[3]; 0.5 uM,0.8982
same,"Burkin Assay in Myoblasts, signal relative to DMSO",[3]; 1 uM,0.8539
same,"Burkin Assay in Myoblasts, signal relative to DMSO",[3]; 5 uM,1.003
same,"Burkin Assay in Myoblasts, signal relative to DMSO",[3]; 10 uM,1.245
same,"Burkin Assay in Myoblasts, signal relative to DMSO",[3]; 20 uM,1.143
same,"Burkin Assay in Myoblasts, signal relative to DMSO",[3]; 40 uM,1.029
same,CMV-LACZ in Myoblasts (β-galactosidase activity relative to DMSO),[4]; 0.5 uM,1.1043
same,CMV-LACZ in Myoblasts (β-galactosidase activity relative to DMSO),[4]; 1 uM,0.9783
same,CMV-LACZ in Myoblasts (β-galactosidase activity relative to DMSO),[4]; 5 uM,0.9398
same,CMV-LACZ in Myoblasts (β-galactosidase activity relative to DMSO),[4]; 10 uM,1.0036
same,CMV-LACZ in Myoblasts (β-galactosidase activity relative to DMSO),[4]; 20 uM,0.7152
same,CMV-LACZ in Myoblasts (β-galactosidase activity relative to DMSO),[4]; 40 uM,0.9937
COc1cc(OC)c(/C=C2/C(=O)Nc3ccccc32)c(OC)c1 [NCGC00015546-04],"CMV-LACZ in Myotubes, value relative to DMSO",[1]; 0.5 uM,1.1555
same,"CMV-LACZ in Myotubes, value relative to DMSO",[1]; 1 uM,1.1427
same,"CMV-LACZ in Myotubes, value relative to DMSO",[1]; 5 uM,1.0553
same,"CMV-LACZ in Myotubes, value relative to DMSO",[1]; 10 uM,1.1513
same,"CMV-LACZ in Myotubes, value relative to DMSO",[1]; 20 uM,1.0230
same,"CMV-LACZ in Myotubes, value relative to DMSO",[1]; 40 uM,1.0700
same,"Burkin Assay in Myotubes, value relative to DMSO",[2]; 0.5 uM,0.9443
same,"Burkin Assay in Myotubes, value relative to DMSO",[2]; 1 uM,1.051
same,"Burkin Assay in Myotubes, value relative to DMSO",[2]; 5 uM,0.8529
same,"Burkin Assay in Myotubes, value relative to DMSO",[2]; 10 uM,0.8253
same,"Burkin Assay in Myotubes, value relative to DMSO",[2]; 20 uM,0.7881
same,"Burkin Assay in Myotubes, value relative to DMSO",[2]; 40 uM,0.7965
same,"Burkin Assay in Myoblasts, value relative to DMSO",[3]; 0.5 uM,0.8923
same,"Burkin Assay in Myoblasts, value relative to DMSO",[3]; 1 uM,0.9228
same,"Burkin Assay in Myoblasts, value relative to DMSO",[3]; 5 uM,0.3771
same,"Burkin Assay in Myoblasts, value relative to DMSO",[3]; 10 uM,0.214
same,"Burkin Assay in Myoblasts, value relative to DMSO",[3]; 20 uM,0.1937
same,"Burkin Assay in Myoblasts, value relative to DMSO",[3]; 40 uM,0.1497
same,"CMV-LACZ in Myoblasts, value relative to DMSO",[4]; 0.5 uM,1.1442
same,"CMV-LACZ in Myoblasts, value relative to DMSO",[4]; 5 uM,1.4889
same,"CMV-LACZ in Myoblasts, value relative to DMSO",[4]; 10 uM,1.2439
same,"CMV-LACZ in Myoblasts, value relative to DMSO",[4]; 20 uM,0.8083
same,"CMV-LACZ in Myoblasts, value relative to DMSO",[4]; 40 uM,0.5873
O=S(=O)(NC(=NC1CCCCC1)c1ccccc1F)c1ccccc1 [MLS000947910-01],"CMV-LACZ in Myotubes, signal relative to DMSO",[1]; 0.5 uM,1.0333
same,"CMV-LACZ in Myotubes, signal relative to DMSO",[1]; 1 uM,0.8348
same,"CMV-LACZ in Myotubes, signal relative to DMSO",[1]; 5 uM,1.2332
same,"CMV-LACZ in Myotubes, signal relative to DMSO",[1]; 10 uM,0.8930
same,"CMV-LACZ in Myotubes, signal relative to DMSO",[1]; 20 uM,1.0165
same,"CMV-LACZ in Myotubes, signal relative to DMSO",[1]; 40 uM,1.0082
same,"Burkin Assay in Myotubes, α7 integrin LacZ reporter signal relative to DMSO",[2]; 0.5 uM,1.134
same,"Burkin Assay in Myotubes, α7 integrin LacZ reporter signal relative to DMSO",[2]; 1 uM,1.101
same,"Burkin Assay in Myotubes, α7 integrin LacZ reporter signal relative to DMSO",[2]; 5 uM,1
same,"Burkin Assay in Myotubes, α7 integrin LacZ reporter signal relative to DMSO",[2]; 10 uM,1.035
same,"Burkin Assay in Myotubes, α7 integrin LacZ reporter signal relative to DMSO",[2]; 20 uM,0.9628
same,"Burkin Assay in Myotubes, α7 integrin LacZ reporter signal relative to DMSO",[2]; 40 uM,0.9515
same,"Burkin Assay in Myoblasts, signal relative to DMSO",[3]; 0.5 uM,1.024
same,"Burkin Assay in Myoblasts, signal relative to DMSO",[3]; 1 uM,1.188
same,"Burkin Assay in Myoblasts, signal relative to DMSO",[3]; 5 uM,1.033
same,"Burkin Assay in Myoblasts, signal relative to DMSO",[3]; 10 uM,1.0429
same,"Burkin Assay in Myoblasts, signal relative to DMSO",[3]; 20 uM,1.047
same,"Burkin Assay in Myoblasts, signal relative to DMSO",[3]; 40 uM,1.018
same,CMV-LACZ in Myoblasts (β-galactosidase activity relative to DMSO),[4]; 0.5 uM,1.0094
same,CMV-LACZ in Myoblasts (β-galactosidase activity relative to DMSO),[4]; 1 uM,0.9250
same,CMV-LACZ in Myoblasts (β-galactosidase activity relative to DMSO),[4]; 5 uM,0.9452
same,CMV-LACZ in Myoblasts (β-galactosidase activity relative to DMSO),[4]; 10 uM,1.0379
same,CMV-LACZ in Myoblasts (β-galactosidase activity relative to DMSO),[4]; 20 uM,1.0870
same,CMV-LACZ in Myoblasts (β-galactosidase activity relative to DMSO),[4]; 40 uM,1.0500
